# In the supplement of paper PMC10307832:
# What was measured:
# Test in all cases: relative viability (nuclei count vs DMSO), 5 days (fraction); higher = more cells survive
# LU99A = system: LU99A
# Procedure, shortened: (§1)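 Five library-drug doses in √10 steps were combined with a fixed anchor-drug dose, or a single drug was given alone, by pin tool to lung cancer cell lines in 1536-well plates the day after seeding. Nuclei were stained and counted after 5 days. Relative viability is the nuclei count in treated wells over that in vehicle wells, taken as the median of duplicate plates.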
# HARA = system: HARA
# Procedure, shortened: as §1
# SW 900 = system: SW 900
# Procedure, shortened: as §1
# NCI-H1792 = system: NCI-H1792
# Procedure, shortened: as §1
# NCI-H647 = system: NCI-H647
# Procedure, shortened: as §1
# NCI-H522 = system: NCI-H522
# Procedure, shortened: as §1
# NCI-H1755 = system: NCI-H1755
# Procedure, shortened: as §1
# ChaGo-K-1 = system: ChaGo-K-1
# Procedure, shortened: as §1
# LK-2 = system: LK-2
# Procedure, shortened: as §1
# EPLC-272H = system: EPLC-272H
# Procedure, shortened: as §1
# HCC-44 = system: HCC-44
# Procedure, shortened: as §1
# NCI-H1734 = system: NCI-H1734
# Procedure, shortened: as §1
# RERF-LC-KJ = system: RERF-LC-KJ
# Procedure, shortened: as §1
# A-427 = system: A-427
# Procedure, shortened: as §1
# NCI-H1650 = system: NCI-H1650
# Procedure, shortened: as §1
# EMC-BAC-2 = system: EMC-BAC-2
# Procedure, shortened: as §1
# NCI-H2405 = system: NCI-H2405
# Procedure, shortened: as §1
# EKVX = system: EKVX
# Procedure, shortened: as §1
# NCI-H1993 = system: NCI-H1993
# Procedure, shortened: as §1
# NCI-H460 = system: NCI-H460
# Procedure, shortened: as §1
# NCI-H358 = system: NCI-H358
# Procedure, shortened: as §1
# NCI-H596 = system: NCI-H596
# Procedure, shortened: as §1
# COR-L 105 = system: COR-L 105
# Procedure, shortened: as §1
structure (smiles),measurement,setting,value
CN1CCN(CCOc2cc(OC3CCOCC3)c3c(Nc4c(Cl)ccc5c4OCO5)ncnc3c2)CC1 [Saracatinib] + Nc1nc2[nH]cc(CCc3ccc(C(=O)N[C@@H](CCC(=O)O)C(=O)O)cc3)c2c(=O)[nH]1 [Pemetrexed] (partner 0.2 µM),relative viability,LU99A; first compound 0.02 µM,0.205
same,relative viability,LU99A; first compound 0.2 µM,0.214
same,relative viability,LU99A; first compound 0.6325 µM,0.173
same,relative viability,LU99A; first compound 2 µM,0.165
same,relative viability,HARA; first compound 0.02 µM,0.268
same,relative viability,HARA; first compound 0.2 µM,0.266
same,relative viability,HARA; first compound 0.6325 µM,0.191
same,relative viability,HARA; first compound 2 µM,0.213
same,relative viability,SW 900; first compound 0.02 µM,0.559
same,relative viability,SW 900; first compound 0.2 µM,0.361
same,relative viability,SW 900; first compound 0.6325 µM,0.506
same,relative viability,SW 900; first compound 2 µM,0.408
same,relative viability,NCI-H1792; first compound 0.02 µM,1.06
same,relative viability,NCI-H1792; first compound 0.2 µM,0.644
same,relative viability,NCI-H1792; first compound 0.6325 µM,1.12
same,relative viability,NCI-H1792; first compound 2 µM,0.788
same,relative viability,NCI-H647; first compound 0.02 µM,0.191
same,relative viability,NCI-H647; first compound 0.2 µM,0.148
same,relative viability,NCI-H647; first compound 0.6325 µM,0.159
same,relative viability,NCI-H647; first compound 2 µM,0.138
same,relative viability,NCI-H522; first compound 0.02 µM,1.15
same,relative viability,NCI-H522; first compound 0.2 µM,0.918
same,relative viability,NCI-H522; first compound 0.6325 µM,0.735
same,relative viability,NCI-H522; first compound 2 µM,0.747
same,relative viability,NCI-H1755; first compound 0.02 µM,0.465
same,relative viability,NCI-H1755; first compound 0.2 µM,0.409
same,relative viability,NCI-H1755; first compound 0.6325 µM,0.424
same,relative viability,NCI-H1755; first compound 2 µM,0.394
same,relative viability,ChaGo-K-1; first compound 0.02 µM,0.28
same,relative viability,ChaGo-K-1; first compound 0.2 µM,0.254
same,relative viability,ChaGo-K-1; first compound 0.6325 µM,0.26
same,relative viability,ChaGo-K-1; first compound 2 µM,0.269
same,relative viability,LK-2; first compound 0.02 µM,0.32
same,relative viability,LK-2; first compound 0.2 µM,0.199
same,relative viability,LK-2; first compound 0.6325 µM,0.205
same,relative viability,LK-2; first compound 2 µM,0.161
same,relative viability,EPLC-272H; first compound 0.02 µM,0.334
same,relative viability,EPLC-272H; first compound 0.2 µM,0.313
same,relative viability,EPLC-272H; first compound 0.6325 µM,0.239
same,relative viability,EPLC-272H; first compound 2 µM,0.251
same,relative viability,HCC-44; first compound 0.02 µM,0.645
same,relative viability,HCC-44; first compound 0.2 µM,0.607
same,relative viability,HCC-44; first compound 0.6325 µM,0.618
same,relative viability,HCC-44; first compound 2 µM,0.667
same,relative viability,NCI-H1734; first compound 0.02 µM,0.418
same,relative viability,NCI-H1734; first compound 0.6325 µM,0.414
same,relative viability,NCI-H1734; first compound 2 µM,0.4
same,relative viability,RERF-LC-KJ; first compound 0.02 µM,0.477
same,relative viability,RERF-LC-KJ; first compound 0.2 µM,0.463
same,relative viability,RERF-LC-KJ; first compound 0.6325 µM,0.47
same,relative viability,RERF-LC-KJ; first compound 2 µM,0.441
same,relative viability,A-427; first compound 0.02 µM,0.963
same,relative viability,A-427; first compound 0.2 µM,0.787
same,relative viability,A-427; first compound 0.6325 µM,0.846
same,relative viability,A-427; first compound 2 µM,1.01
same,relative viability,NCI-H1650; first compound 0.02 µM,0.343
same,relative viability,NCI-H1650; first compound 0.2 µM,0.357
same,relative viability,NCI-H1650; first compound 0.6325 µM,0.318
same,relative viability,NCI-H1650; first compound 2 µM,0.307
same,relative viability,EMC-BAC-2; first compound 0.02 µM,0.456
same,relative viability,EMC-BAC-2; first compound 0.2 µM,0.373
same,relative viability,EMC-BAC-2; first compound 0.6325 µM,0.44
same,relative viability,EMC-BAC-2; first compound 2 µM,0.442
same,relative viability,NCI-H2405; first compound 0.02 µM,0.995
same,relative viability,NCI-H2405; first compound 0.2 µM,0.671
same,relative viability,NCI-H2405; first compound 0.6325 µM,0.843
same,relative viability,NCI-H2405; first compound 2 µM,0.488
same,relative viability,EKVX; first compound 0.02 µM,0.429
same,relative viability,EKVX; first compound 0.6325 µM,0.498
same,relative viability,EKVX; first compound 2 µM,0.369
same,relative viability,NCI-H1993; first compound 0.02 µM,0.626
same,relative viability,NCI-H1993; first compound 0.2 µM,0.519
same,relative viability,NCI-H1993; first compound 0.6325 µM,0.642
same,relative viability,NCI-H1993; first compound 2 µM,0.471
same,relative viability,NCI-H460; first compound 0.02 µM,0.0672
same,relative viability,NCI-H460; first compound 0.2 µM,0.0368
same,relative viability,NCI-H460; first compound 0.6325 µM,0.0538
same,relative viability,NCI-H460; first compound 2 µM,0.0548
same,relative viability,NCI-H358; first compound 0.02 µM,0.193
same,relative viability,NCI-H358; first compound 0.2 µM,0.166
same,relative viability,NCI-H358; first compound 0.6325 µM,0.156
same,relative viability,NCI-H358; first compound 2 µM,0.151
same,relative viability,NCI-H596; first compound 0.02 µM,0.522
same,relative viability,NCI-H596; first compound 0.2 µM,0.49
same,relative viability,NCI-H596; first compound 0.6325 µM,0.471
same,relative viability,NCI-H596; first compound 2 µM,0.479
same,relative viability,COR-L 105; first compound 0.02 µM,1.2
same,relative viability,COR-L 105; first compound 0.2 µM,1.21
same,relative viability,COR-L 105; first compound 0.6325 µM,1.26
same,relative viability,COR-L 105; first compound 2 µM,0.717
